Experimental data published in patent US20120129831A1, “Substituted 3-(1,2,4-Oxadiazol-5-yl)-5-Phenylpiperidines” (BAYER PHARMA AKTIENGESELLSCHAFT, priority 2009, published 2012).

Target: T1, human protease activated receptor 1 (PAR-1) (Homo sapiens, UniProt P25116)
T1 construct: the cell stably expresses the endogenous human PAR-1 receptor and the endogenous purinergic receptor P2Y2; endogenous in cells; host or cells: HEK293-derived recombinant cell line; only the mitochondrial aequorin is recombinant
T1 sequence (P25116 22-425): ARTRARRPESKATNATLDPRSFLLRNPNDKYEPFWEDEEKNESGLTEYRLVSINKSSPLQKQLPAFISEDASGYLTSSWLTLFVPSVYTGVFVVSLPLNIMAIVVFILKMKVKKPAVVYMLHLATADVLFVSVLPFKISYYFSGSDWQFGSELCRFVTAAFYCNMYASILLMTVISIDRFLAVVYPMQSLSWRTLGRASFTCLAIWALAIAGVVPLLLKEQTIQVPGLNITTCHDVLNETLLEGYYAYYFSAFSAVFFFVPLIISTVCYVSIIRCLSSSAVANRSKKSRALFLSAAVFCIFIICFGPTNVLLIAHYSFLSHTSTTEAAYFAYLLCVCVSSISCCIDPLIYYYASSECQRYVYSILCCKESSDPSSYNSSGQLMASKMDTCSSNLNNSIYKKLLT
Assay: Cellular functional in vitro test (aequorin luminescence, PAR-1 antagonism)
Assay type: cell-based
Settings: recombinant HEK293 aequorin cell line, endogenous human PAR-1; PAR-1 agonist at EC50; calcium luminescence
Text: A recombinant cell line is used to identify antagonists of the human protease activated receptor 1 (PAR-1) and to quantify the activity of the substances described herein. The cell is originally derived from a human embryonal kidney cell (HEK293; ATCC: American Type Culture Collection, Manassas, Va. 20108, USA). The test cell line constitutively expresses a modified form of the calcium-sensitive photoprotein aequorin which, after reconstitution with the cofactor coelenterazine, emits light when the free calcium concentration in the inner mitochondrial compartment is increased (Rizzuto R, Simpson A W, Brini M, Pozzan T.; Nature 1992, 358, 325-327). Additionally, the cell stably expresses the endogenous human PAR-1 receptor and the endogenous purinergic receptor P2Y2. The resulting PAR-1 test cell responds to stimulation of the endogenous PAR-1 or P2Y2 receptor with an intracellular release of calcium ions, which can be quantified through the resulting aequorin luminescence with a suitable luminometer (Milligan G, Marshall F, Rees S, Trends in Pharmacological Sciences 1996, 17, 235-237). […]
Test procedure: The cells are plated out two days (48 h) before the test in culture medium (DMEM F12, supplemented with 10% FCS, 2 mM glutamine, 20 mM HEPES, 1.4 mM pyruvate, 0.1 mg/ml gentamycin, 0.15% Na bicarbonate; BioWhittaker Cat. #BE04-687Q; B-4800 Verviers, Belgium) in 384-well microtitre plates and kept in a cell incubator (96% atmospheric humidity, 5% v/v CO2, 37° C.). […] The test substances are then pipetted onto the microtitre plate, and 5 minutes after the transfer of the test substances into the wells of the microtitre plate the plate is transferred into the luminometer, a PAR-1 agonist concentration which corresponds to EC50 is added and the resulting light signal is immediately measured in the luminometer. To distinguish an antagonist substance action from a toxic action, the endogenous purinergic receptor is immediately subsequently activated with agonist (ATP, final concentration 10 μM) and the resulting light signal is measured.

Row | IC50 [µM] | Compound
1 | 0.034 | O=C(N1CC(O)C1)N1CC(c2ccc(OC(F)(F)F)cc2)CC(c2nc(C3CC3)no2)C1 (single isomer, unassigned) [Example 7, {3-(3-Cyclopropyl-1,2,4-oxadiazol-5-yl)-5-[4-(trifluoromethoxy)phenyl]piperidin-1-yl}(3-hydroxyazetidin-1-yl)methanone]
2 | 0.028 | COCCc1noc(C2CC(c3ccc(OC(F)(F)F)cc3)CN(C(=O)N3CC(O)C3)C2)n1 (single isomer, unassigned) [Example 9, (3-Hydroxyazetidin-1-yl){3-[3-(2-methoxyethyl)-1,2,4-oxadiazol-5-yl]-5-[4-(trifluoromethoxy)-phenyl]piperidin-1-yl}methanone]
3 | 0.0086 | CCOCCc1noc(C2CC(c3ccc(CC)cc3)CN(C(=O)N3CCC(O)CC3)C2)n1 (single isomer, unassigned) [Example 15, {3-[3-(2-Ethoxyethyl)-1,2,4-oxadiazol-5-yl]-5-(4-ethylphenyl)piperidin-1-yl}(4-hydroxypiperidin-1-yl)methanone]
